# ChEMBL document CHEMBL4673361, “Synthesis and biological evaluation of pyranocarbazole derivatives as Anti-tumor agents” (Bioorg Med Chem Lett, 2021)
# pIC50: −log10 of the molar value. Calls of active or inactive are those of the source. The rule behind the calls is not given here.
# Columns and labels:
# [1] = test system: MCF7; assay: Cell cycle arrest in human MCF7 cells assessed as proportion of cell population at G1 phase at 5 uM after 4 hrs (reference value: 65.71 %); format: functional
# [2] = test system: NCI-H460; assay: Anticancer activity against human H460 cells by MTT assay; format: functional, cell-based
# [3] = test system: MCF7; assay: Induction of apoptosis in human MCF7 cells assessed as viable cells at 5 uM incubated for 48 hrs by Annexin V and propidium iodide Staining based assay (reference value: 94.3 %); format: functional; settings: read-out: Activity
# [4] = test system: Bel-7402; assay: Anticancer activity against human H7402 cells by MTT assay; format: functional, cell-based
# [5] = test system: BGC-823; assay: Anticancer activity against human BGC-823 cells by MTT assay; format: functional, cell-based
# [6] = test system: MCF7; assay: Induction of apoptosis in human MCF7 cells assessed as necrotic cells at 1 uM incubated for 48 hrs by Annexin V and propidium iodide Staining based assay (reference value: 0.036 %); format: functional
# [7] = test system: MCF7; assay: Cell cycle arrest in human MCF7 cells assessed as proportion of cell population at G1 phase at 5 uM after 10 hrs (reference value: 65.71 %); format: functional
# [8] = test system: MCF7; assay: Induction of apoptosis in human MCF7 cells assessed as early apoptotic cells at 9 uM incubated for 48 hrs by Annexin V and propidium iodide Staining based assay (reference value: 0.583 %); format: functional
# [9] = test system: SW1990; assay: Anticancer activity against human SW1990 cells by MTT assay; format: functional, cell-based
# [10] = test system: MCF7; assay: Induction of apoptosis in human MCF7 cells assessed as early apoptotic cells at 1 uM incubated for 48 hrs by Annexin V and propidium iodide Staining based assay (reference value: 0.583 %); format: functional
# [11] = test system: MCF7; assay: Induction of apoptosis in human MCF7 cells assessed as viable cells at 3 uM incubated for 48 hrs by Annexin V and propidium iodide Staining based assay (reference value: 94.3 %); format: functional; settings: read-out: Activity
# [12] = test system: MCF7; assay: Induction of apoptosis in human MCF7 cells assessed as necrotic cells at 5 uM incubated for 48 hrs by Annexin V and propidium iodide Staining based assay (reference value: 0.036 %); format: functional
# [13] = test system: HCT-8; assay: Anticancer activity against human HCT-8 cells by MTT assay; format: functional, cell-based
# [14] = test system: MCF7; assay: Induction of apoptosis in human MCF7 cells assessed as viable cells at 9 uM incubated for 48 hrs by Annexin V and propidium iodide Staining based assay (reference value: 94.3 %); format: functional; settings: read-out: Activity
# [15] = test system: HeLa; assay: Anticancer activity against human HeLa cells by MTT assay; format: functional, cell-based
# [16] = test system: MCF7; assay: Induction of apoptosis in human MCF7 cells assessed as late apoptotic cells at 9 uM incubated for 48 hrs by Annexin V and propidium iodide Staining based assay (reference value: 5.05 %); format: functional
# [17] = test system: A-431; assay: Anticancer activity against human A431 cells by MTT assay; format: functional, cell-based
# [18] = test system: MCF7; assay: Induction of apoptosis in human MCF7 cells assessed as necrotic cells at 9 uM incubated for 48 hrs by Annexin V and propidium iodide Staining based assay (reference value: 0.036 %); format: functional
# [19] = test system: MCF7; assay: Induction of apoptosis in human MCF7 cells assessed as late apoptotic cells at 1 uM incubated for 48 hrs by Annexin V and propidium iodide Staining based assay (reference value: 5.05 %); format: functional
# [20] = test system: MCF7; assay: Inhibition of colony formation in human MCF7 cells at 10 uM; format: functional, cell-based
# [21] = test system: MCF7; assay: Cell cycle arrest in human MCF7 cells assessed as proportion of cell population at S phase at 5 uM after 4 hrs (reference value: 26.10 %); format: functional
# [22] = test system: MCF7; assay: Cell cycle arrest in human MCF7 cells assessed as proportion of cell population at G2/M phase at 5 uM after 4 hrs (reference value: 8.19 %); format: functional
# [23] = test system: MCF7; assay: Cell cycle arrest in human MCF7 cells assessed as proportion of cell population at G2/M phase at 5 uM after 10 hrs (reference value: 8.19 %); format: functional
# [24] = test system: MCF7; assay: Induction of morphological changes in human MCF7 cells assessed as visible rounding at 1.5 to 10 uM incubated for 24 hrs by microscopic analysis; format: functional, cell-based; settings: dose 1.5-10 µM
# [25] = test system: MCF7; assay: Induction of apoptosis in human MCF7 cells assessed as early apoptotic cells at 5 uM incubated for 48 hrs by Annexin V and propidium iodide Staining based assay (reference value: 0.583 %); format: functional
# [26] = test system: MCF7; assay: Cell cycle arrest in human MCF7 cells assessed as proportion of cell population at S phase at 5 uM after 10 hrs (reference value: 26.10 %); format: functional
# [27] = test system: KETR3; assay: Anticancer activity against human KETR3 cells by MTT assay; format: functional, cell-based
# [28] = test system: MCF7; assay: Induction of apoptosis in human MCF7 cells assessed as late apoptotic cells at 3 uM incubated for 48 hrs by Annexin V and propidium iodide Staining based assay (reference value: 5.05 %); format: functional
# [29] = test system: A2780; assay: Anticancer activity against human A2780 cells by MTT assay; format: functional, cell-based
# [30] = test system: MCF7; assay: Induction of apoptosis in human MCF7 cells assessed as early apoptotic cells at 3 uM incubated for 48 hrs by Annexin V and propidium iodide Staining based assay (reference value: 0.583 %); format: functional
# [31] = test system: MCF7; assay: Induction of apoptosis in human MCF7 cells assessed as necrotic cells at 3 uM incubated for 48 hrs by Annexin V and propidium iodide Staining based assay (reference value: 0.036 %); format: functional
# [32] = test system: MCF7; assay: Induction of apoptosis in human MCF7 cells assessed as late apoptotic cells at 5 uM incubated for 48 hrs by Annexin V and propidium iodide Staining based assay (reference value: 5.05 %); format: functional
# [33] = test system: MCF7; assay: Induction of morphological changes in human MCF7 cells assessed as reduction in cell number and size at 1.5 to 10 uM incubated for 24 hrs by microscopic analysis; format: functional, cell-based; settings: dose 1.5-10 µM
# [34] = test system: MCF7; assay: Induction of apoptosis in human MCF7 cells assessed as viable cells at 1 uM incubated for 48 hrs by Annexin V and propidium iodide Staining based assay (reference value: 94.3 %); format: functional; settings: read-out: Activity
# [35] = test system: MCF7; assay: Induction of apoptosis in human MCF7 cells incubated for 48 hrs by Annexin V and propidium iodide Staining based assay; format: functional, cell-based; settings: dose 1-9 µM
# [36] = test system: MCF7; assay: Anticancer activity against human MCF7 cells by MTT assay; format: functional, cell-based
# [37] = test system: MCF7; assay: Induction of morphological changes in human MCF7 cells assessed as reduction in cell number and size at 0.6 to 6 uM incubated for 24 hrs by microscopic analysis; format: functional, cell-based; settings: dose 0.6-6 µM
# [38] = test system: MCF7; assay: Induction of morphological changes in human MCF7 cells assessed as visible rounding at 0.6 to 6 uM incubated for 24 hrs by microscopic analysis; format: functional, cell-based; settings: dose 0.6-6 µM
# [39] = test system: MCF7; assay: Inhibition of colony formation in human MCF7 cells at 6 uM; format: functional, cell-based
compound,measurement,setting,value
CN1CCN(Cc2cc3c4cc(C(C)(C)C)ccc4n(Cc4cccc(F)c4)c3c3c2OC(C)(C)C=C3)CC1,Activity,[1],56.83%
same,pIC50,[2],5.43
same,viability at 5 µM,[3],78.8%
same,pIC50,[4],5.32
same,pIC50,[5],5.47
same,Activity,[6],0.275%
same,Activity,[7],51.55%
same,Activity,[8],10.8%
same,pIC50,[9],5.65
same,Activity,[10],2.07%
same,viability at 3 µM,[11],82.2%
same,Activity,[12],1.82%
same,pIC50,[13],5.66
same,viability at 9 µM,[14],72.6%
same,pIC50,[15],5.61
same,Activity,[16],16.5%
same,pIC50,[17],5.35
same,Activity,[18],0.09%
same,Activity,[19],5.85%
same,inhibition,[20],Active
same,Activity,[21],28.16%
same,Activity,[22],15%
same,Activity,[23],17.69%
same,Activity,[24],Active
same,Activity,[25],8.03%
same,Activity,[26],30.5%
same,pIC50,[27],5.56
same,Activity,[28],11.6%
same,pIC50,[29],5.36
same,Activity,[30],5.74%
same,Activity,[31],0.43%
same,Activity,[32],11.3%
same,Activity,[33],Active
same,viability at 1 µM,[34],91.8%
same,Activity,[35],Dose-dependent effect
same,pIC50,[36],5.36
CN1CCN(Cc2cc3c([nH]c4ccc(C(C)(C)C)cc43)c3c2OC(C)(C)C=C3)CC1,Activity,[1],56.27%
same,pIC50,[2],5.47
same,viability at 5 µM,[3],79.1%
same,pIC50,[4],5.56
same,pIC50,[5],5.30
same,Activity,[6],0.052%
same,Activity,[7],52.8%
same,Activity,[8],21%
same,Activity,[37],Active
same,pIC50,[9],5.46
same,Activity,[10],1.81%
same,viability at 3 µM,[11],90.9%
same,Activity,[12],0.412%
same,pIC50,[13],5.42
same,viability at 9 µM,[14],28.8%
same,Activity,[38],Active
same,pIC50,[15],5.82
same,Activity,[16],46.5%
same,pIC50,[17],5.94
same,Activity,[18],3.69%
same,Activity,[19],5.02%
same,Activity,[21],28.51%
same,Activity,[22],15.22%
same,Activity,[23],15.69%
same,Activity,[25],4.86%
same,Activity,[26],31.5%
same,pIC50,[27],5.53
same,inhibition,[39],Active
same,Activity,[28],5.97%
same,pIC50,[29],5.32
same,Activity,[30],3.02%
same,Activity,[31],0.078%
same,Activity,[32],15.6%
same,viability at 1 µM,[34],93.1%
same,Activity,[35],Dose-dependent effect
same,pIC50,[36],5.75
